Experimental findings from US20110230472A1, “RING-FUSED AZOLE DERIVATIVE HAVING PI3K-INHIBITING ACTIVITY” (Shionogi & Co., Ltd., priority 2008, published 2011) are described below.

The assay deals with PI-3 kinase γ (Homo sapiens, UniProt P48736). Nature of the assay: PI3Kγ inhibitory activity, PI3-kinase HTRF assay (inhibition ratio). Particulars: 0.5 h. In kind it is biochemical. The method, boiled down:
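Single-concentration inhibition ratio (50 or 10 μmol/L compound) versus no-compound (100%) and no-enzyme (0%) wells. Reaction: PI-3 kinase γ, PIP2, ATP, MgCl2/DTT, 30 min at RT after 10 min preincubation. Read-out: HTRF 665/620 nm after 18 h detection.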
(In general: TR-FRET usually uses a lanthanide donor and a delayed reading to cut background.)

Sequence of PI-3 kinase γ (P48736 whole entry): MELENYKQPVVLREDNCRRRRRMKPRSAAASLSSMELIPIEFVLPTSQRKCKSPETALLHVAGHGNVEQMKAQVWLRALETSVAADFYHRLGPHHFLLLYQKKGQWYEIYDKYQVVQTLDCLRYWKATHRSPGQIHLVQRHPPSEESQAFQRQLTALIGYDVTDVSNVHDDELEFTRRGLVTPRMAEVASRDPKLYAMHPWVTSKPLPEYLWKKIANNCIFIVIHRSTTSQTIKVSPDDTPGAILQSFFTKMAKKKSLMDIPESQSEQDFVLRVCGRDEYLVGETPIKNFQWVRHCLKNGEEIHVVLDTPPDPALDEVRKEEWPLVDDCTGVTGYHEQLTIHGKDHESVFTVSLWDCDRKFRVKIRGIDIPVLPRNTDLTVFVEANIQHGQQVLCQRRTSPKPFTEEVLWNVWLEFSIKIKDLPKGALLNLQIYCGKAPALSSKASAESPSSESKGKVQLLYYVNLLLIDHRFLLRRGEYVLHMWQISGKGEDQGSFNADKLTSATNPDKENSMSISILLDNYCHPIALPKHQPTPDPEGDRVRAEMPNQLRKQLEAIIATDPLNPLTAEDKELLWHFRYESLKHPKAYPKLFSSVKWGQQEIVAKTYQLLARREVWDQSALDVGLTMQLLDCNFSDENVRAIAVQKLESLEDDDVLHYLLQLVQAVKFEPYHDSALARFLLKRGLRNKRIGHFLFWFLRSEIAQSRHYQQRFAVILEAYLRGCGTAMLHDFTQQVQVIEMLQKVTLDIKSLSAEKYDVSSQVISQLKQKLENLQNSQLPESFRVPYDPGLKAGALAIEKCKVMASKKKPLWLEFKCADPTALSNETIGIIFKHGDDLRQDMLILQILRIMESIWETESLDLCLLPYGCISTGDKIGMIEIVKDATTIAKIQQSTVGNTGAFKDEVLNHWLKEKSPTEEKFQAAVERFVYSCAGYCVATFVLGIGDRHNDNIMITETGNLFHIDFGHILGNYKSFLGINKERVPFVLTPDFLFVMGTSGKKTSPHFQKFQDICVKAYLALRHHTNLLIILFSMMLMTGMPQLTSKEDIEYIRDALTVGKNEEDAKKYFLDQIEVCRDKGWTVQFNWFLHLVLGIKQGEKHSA

By inhibition is commonly meant the percentage by which the read-out fell short of the control. Take `CNC(=O)Nc1cc2n(n1)CCN2c1cc(Br)cc(C(=O)N(C)C)c1` [Compound I-195]: where the note is “PI3Kγ, compound at 50 μM”, the inhibition at 50 µM came out at 93%.
Take `CN1CCc2cc(N3CCn4nc(NC(=O)c5cccc(C(=O)OC(C)(C)C)c5)cc43)ccc2C1=O` [Compound I-465]: the inhibition at 10 µM (compound at 10 μmol/L) was at least 95%.
On the same count and under the same terms, the figure for `COc1cc(N2CCc3nc(NC(=O)NCc4cc(Br)no4)sc3C2)nc(OC)n1` [Compound I-329] is 89%; for `CN1CCc2cc(N3CCn4nc(NC(=O)c5csc(C(=O)NC(C)(C)C)c5)cc43)ccc2C1=O` [Compound I-438] it is 86%.
For `COc1cc(N2CCc3nc(NC(=O)Cc4cc(OC)c(OC)c(OC)c4)sc3C2)nc(OC)n1` [Compound I-268], the inhibition at 10 µM (PI3Kγ, compound at 10 μM) was at least 95%.
As for `CN1CCc2cc(N3CCn4nc(NC(=O)c5ccc(C(N)=O)s5)cc43)ccc2C1=O` [Compound I-404], under “compound at 10 μmol/L”, the inhibition at 10 µM is 78%.
Take `CNC(=O)Nc1cc2n(n1)CCN2c1cc(C#CC2CCN(C(=O)OC(C)(C)C)CC2)cc(C(=O)N2CCOCC2)c1` [Compound I-250]: the inhibition at 50 µM (PI3Kγ, compound at 50 μM) was at least 95%.
Still for that read-out and setting: in the case of `CNC(=O)Nc1nc2c(s1)CN(c1cc(Oc3ccccc3)nc(OC(C)(C)C)n1)CC2` [Compound I-150] it was at least 95%.
For the molecule `CC(=O)Nc1cc2n(n1)CCN2c1ccc2c(c1)CCCN2C(=O)OC(C)(C)C` [Compound I-306], the inhibition at 10 µM (compound at 10 μmol/L) was at least 95%.
In the case of `COc1cc(N2CCc3nc(NC(=O)c4ccc(C)s4)sc3C2)nc(OC)n1` [Compound I-458], the inhibition at 10 µM (compound at 10 μmol/L) turned out to be 92%.
On to `CNC(=O)Nc1nc2c(s1)CN(c1cncc(Cl)n1)CC2` [Compound I-123], for which the inhibition at 50 µM (PI3Kγ, compound at 50 μM) was at least 95%.
Take `CN1CCc2cc(N3CCn4nc(NC(=O)C5CCN(C(=O)OC(C)(C)C)C5)cc43)ccc2C1=O` (stereo not shown) [Compound I-350]: the inhibition at 50 µM (compound at 50 μmol/L) was at least 95%.
For `COc1cccc(N2CCn3nc(NC(=O)CCCCC(=O)O)cc32)c1` [Compound I-315], the inhibition at 10 µM (compound at 10 μmol/L) is at least 95%.
